This note sets out measurements from US20260317319A1, “NOVEL ERGOLINES AND METHODS OF TREATING MOOD DISORDERS” (Gilgamesh Pharma Inc., priority 2023, published 2026).

Where two headings read alike, the source gives them in different places.

In one data set the target is T1, 5-HT2B receptor (Homo sapiens, UniProt P41595).
T1 construct: expressed in transfected cells; host or cells: HEK293, stably transfected
Nature of the data set: cell-based. The data set is classed as cell-based. Conditions: Ca2+ flux; for Emax: HEK293, agonist, HEK293, max dose, read-out: 5-HT2B % Act @ Max Dose; for EC50: agonist, HEK293. A digest of the protocol: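 FLIPR Tetra fluorescence read-out of calcium flux after compound addition. Receptor-expressing stable lines were used (HEK293 for 2A/2B; CHO with Gα15 for 1A), dye-loaded with Fluo-4 Direct and 2.5 mM final probenecid, 50 min at 37 °C.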

The target of the next data set is T2, 5-HT1A receptor (Homo sapiens, UniProt P08908).
T2 construct: expressed in transfected cells; host or cells: CHO cells, stably transfected
T2 sequence (P08908 1-422): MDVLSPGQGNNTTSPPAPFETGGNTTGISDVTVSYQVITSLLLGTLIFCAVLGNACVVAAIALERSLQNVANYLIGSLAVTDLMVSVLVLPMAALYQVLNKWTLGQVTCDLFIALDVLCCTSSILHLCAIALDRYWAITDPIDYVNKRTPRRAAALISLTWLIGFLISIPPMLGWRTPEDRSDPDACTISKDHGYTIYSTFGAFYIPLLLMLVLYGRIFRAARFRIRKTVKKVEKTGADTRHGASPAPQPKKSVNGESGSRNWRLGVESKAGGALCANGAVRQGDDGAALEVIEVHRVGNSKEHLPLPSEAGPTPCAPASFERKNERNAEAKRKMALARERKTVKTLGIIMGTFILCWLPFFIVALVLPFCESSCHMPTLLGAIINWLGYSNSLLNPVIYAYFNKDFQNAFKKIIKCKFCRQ
Nature of the data set: cell-based. Conditions: agonist, Ca2+ flux; for Emax: CHO, CHO cells with Gα15, max dose, read-out: 5-HT1A % Act @ Max Dose; for EC50: CHO cells with Gα15. The essentials: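 Receptor agonism was assessed as intracellular calcium mobilization in stably transfected cells, with CHO cells additionally carrying Gα15 for the 5-HT1A readout. Calcium was monitored with Fluo-4 Direct dye.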

Another data set concerns the target T3, 5-HT1B receptor (Homo sapiens, UniProt P28222).
T3 construct: expressed in transfected cells
Nature of the data set: cAMP accumulation functional assay at 5-HT1B. The data set is classed as cell-based. The note with it: for EC50 / Emax: agonist, cAMP accumulation; for Emax: max dose, read-out: 5-HT1B % Act @ Max Dose; for selectivity for 5-HT2A over 5-HT1B: functional, compared to the N-methyl prototype LSD. The essentials: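 Agonist activity measured as cAMP accumulation in cells stably transfected with human 5-HT1B. Cells incubated 60 min at RT, then detection reagent added for a further 60 min at RT before plate reading.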
In general terms: Changes in cAMP serve as a functional read-out for many G protein-coupled receptors.

Data set [1] concerns the target T4, 5-HT2A receptor (Homo sapiens, UniProt P28223). Nature of the data set: cell-based. The data set is classed as cell-based. The note with it: beta-arrestin recruitment; for EC50 / Emax: agonist; for EC50: PathHunter, read-out: 5-HT2A Arrestin EC50; for Emax: max dose, read-out: 5-HT2A Arrestin % Act @ Max Dose. A digest of the protocol:
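PathHunter β-arrestin recruitment (enzyme fragment complementation): 5-HT2A fused to ProLink donor in cells co-expressing β-arrestin–β-galactosidase acceptor, seeded and held at 37° C before testing. Chemiluminescent read-out; agonist % activity = (sample RLU − vehicle)/(max control ligand − vehicle) × 100.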

The nature of data set [2]: in vitro. The note with it: for microsomal CLint / half-life: human, microsomes; for microsomal CLint / half-life / Intrinsic clearance (Clint) / half-life (t1/2): HLM 0.50 mg/mL, NADPH 1 mM, 1 μM compound, pH 7.4, 37° C., 60 min; for microsomal CLint: read-out: Intrinsic clearance (Clint); for half-life: read-out: half-life (t1/2). The data set is classed as in vitro ADME, human.

The nature of data set [3]: in vitro. Conditions: for microsomal CLint / half-life: mouse, microsomes; for microsomal CLint / half-life / Intrinsic clearance (Clint) / half-life (t1/2): MLM (male CD-1) 0.50 mg/mL, NADPH 1 mM, 1 μM compound, pH 7.4, 37° C., 60 min; for microsomal CLint: read-out: Intrinsic clearance (Clint); for half-life: read-out: half-life (t1/2). The data set is classed as in vitro ADME, mouse. From the text:
MLM Stability Pooled MLM from male CD-1 mice (BIOIVT M00501) were used.

A short description of data set [4]: in vitro. Conditions: for microsomal CLint / half-life: rat, microsomes; for microsomal CLint / half-life / Intrinsic clearance (Clint) / half-life (t1/2): RLM (male Sprague-Dawley) 0.50 mg/mL, NADPH 1 mM, 1 μM compound, pH 7.4, 37° C., 60 min; for microsomal CLint: read-out: Intrinsic clearance (Clint); for half-life: read-out: half-life (t1/2). In kind it is in vitro ADME, rat. From the text:
RLM Stability Pooled RLM from male Sprague-Dawley rats (Xenotech R1000) were used.

The target of data set [5] is T4, 5-HT2A receptor. Nature of the data set: cell-based. In kind it is cell-based. On the set-up: expressed in transfected cells; host or cells: HEK293, stably transfected. Conditions: Ca2+ flux; for Emax: HEK293, agonist, HEK293, max dose, read-out: 5-HT2A % Act @ Max Dose; for EC50: agonist, HEK293. A digest of the protocol:
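Agonist activity measured by FLIPR Ca2+ flux in stably transfected cells: HEK293 for 5-HT2A and 5-HT2B, CHO co-expressing Gα15 for 5-HT1A. Cells loaded with Fluo-4 Direct dye plus probenecid (2.5 mM final) for 50 min at 37 °C, 5% CO2; compounds added and fluorescence read on FLIPR Tetra.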
On the technique in general: Calcium flux is commonly read through the fluorescence of an indicator in the cells.

T3 sequence (P28222 whole entry): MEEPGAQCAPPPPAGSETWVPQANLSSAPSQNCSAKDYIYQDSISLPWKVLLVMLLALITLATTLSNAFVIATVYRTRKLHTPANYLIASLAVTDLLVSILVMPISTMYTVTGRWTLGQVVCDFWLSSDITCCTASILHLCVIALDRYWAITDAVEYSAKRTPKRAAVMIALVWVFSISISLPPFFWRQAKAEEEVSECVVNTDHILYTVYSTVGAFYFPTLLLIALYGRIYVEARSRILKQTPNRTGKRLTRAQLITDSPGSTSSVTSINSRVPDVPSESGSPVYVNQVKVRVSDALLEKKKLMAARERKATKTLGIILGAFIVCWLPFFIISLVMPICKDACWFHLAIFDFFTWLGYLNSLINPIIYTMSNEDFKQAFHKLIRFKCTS
T4 sequence (P28223 whole entry, the tested form may be a part): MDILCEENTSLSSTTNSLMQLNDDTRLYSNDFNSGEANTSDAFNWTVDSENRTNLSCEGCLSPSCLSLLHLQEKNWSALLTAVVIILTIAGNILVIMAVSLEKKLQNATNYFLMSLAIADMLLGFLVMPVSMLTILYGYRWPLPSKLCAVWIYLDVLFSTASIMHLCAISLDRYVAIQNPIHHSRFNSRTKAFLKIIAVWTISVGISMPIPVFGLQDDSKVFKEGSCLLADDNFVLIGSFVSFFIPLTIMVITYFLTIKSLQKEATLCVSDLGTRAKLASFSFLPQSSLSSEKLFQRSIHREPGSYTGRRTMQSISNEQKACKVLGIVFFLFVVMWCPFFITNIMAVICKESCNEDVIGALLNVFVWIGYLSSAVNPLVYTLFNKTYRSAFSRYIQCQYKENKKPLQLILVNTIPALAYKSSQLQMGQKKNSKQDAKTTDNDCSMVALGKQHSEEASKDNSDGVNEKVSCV
T1 sequence (P41595 whole entry): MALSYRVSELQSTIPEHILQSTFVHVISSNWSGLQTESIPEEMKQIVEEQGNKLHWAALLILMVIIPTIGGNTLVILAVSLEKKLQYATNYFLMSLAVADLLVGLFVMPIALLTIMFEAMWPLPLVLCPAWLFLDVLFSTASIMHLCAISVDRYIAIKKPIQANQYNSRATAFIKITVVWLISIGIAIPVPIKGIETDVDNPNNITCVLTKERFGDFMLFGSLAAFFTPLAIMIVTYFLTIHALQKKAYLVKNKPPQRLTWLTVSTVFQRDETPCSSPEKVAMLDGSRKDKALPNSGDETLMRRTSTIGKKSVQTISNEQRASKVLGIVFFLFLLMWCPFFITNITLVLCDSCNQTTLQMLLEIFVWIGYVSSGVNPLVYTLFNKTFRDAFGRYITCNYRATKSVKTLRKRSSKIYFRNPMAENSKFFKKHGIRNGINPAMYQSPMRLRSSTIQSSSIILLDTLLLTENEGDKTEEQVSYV

By EC50 is commonly meant the concentration giving half of the maximal effect. For `CCN(CC)C(=O)[C@@H]1C=C2c3cccc4[nH]cc(c34)C[C@H]2N(Cc2ccccc2)C1` [Compound 82, (6aR,9R)-7-benzyl-N,N-diethyl-4,6,6a,7,8,9-hexahydroindolo[4,3-fg]quinoline-9-carboxamide], the Emax on 5-HT2B receptor was 13.3%; at 5-HT1A receptor, 27.8%; on 5-HT1B receptor it was 62.8%; on 5-HT2A receptor [1], 26.1%; at 5-HT2A receptor [5], 61.4%. Besides, the EC50 is > 10000 nM on 5-HT2B receptor; 3350 nM on 5-HT1A receptor; 992 nM on 5-HT1B receptor; 1.73 nM on 5-HT2A receptor [1]; 422 nM at 5-HT2A receptor [5]. In addition, the microsomal CLint stood at 106 µL/min/mg in “in vitro [2]”, 553 µL/min/mg in the data set “in vitro [3]” and 190 µL/min/mg in the data set “in vitro [4]”. In addition, the values for the half-life in the data set “in vitro [2]”, in “in vitro [3]” and in the data set “in vitro [4]” were 13 min, 2.5 min and 7.3 min, respectively.
Consider `CCN(CC)C(=O)[C@@H]1C=C2c3cccc4[nH]cc(c34)C[C@H]2N(Cc2ccc(OC)cc2)C1` [Compound 19, (6aR,9R)—N,N-diethyl-7-(4-methoxybenzyl)-4,6,6a,7,8,9-hexahydroindolo[4,3-fg]quinoline-9-carboxamide], for which the Emax on 5-HT2B receptor was 2.44%; at 5-HT1A receptor it was -0.65%; at 5-HT1B receptor, 71.1%; on 5-HT2A receptor [1], 42.3%; at 5-HT2A receptor [5], 70.5%. For the same compound, the half-maximal effective concentration (EC50) on 5-HT2A receptor [1] turned out to be 13.5 nM. The results for the “Intrinsic clearance (Clint)” value in the data set “in vitro [2]”, in the data set “in vitro [3]” and in the data set “in vitro [4]” were 82.7 µL/min/mg, 192.7 µL/min/mg and 139.0 µL/min/mg, respectively. Also, the “half-life (t1/2)” value in the data set “in vitro [2]” came out at 16.8 min; in “in vitro [3]”, 7.2 min; in “in vitro [4]” it was 10.0 min.
With `CCCN1C[C@H](C(=O)NC(CC)CC)C=C2c3cccc4[nH]cc(c34)C[C@H]21` [Compound 6, (6aR,9R)—N-(pentan-3-yl)-7-propyl-4,6,6a,7,8,9-hexahydroindolo[4,3-fg]quinoline-9-carboxamide], the Emax on 5-HT2B receptor worked out at 92.9%; on 5-HT1A receptor, 102%; on 5-HT1B receptor, 94.6%; at 5-HT2A receptor [1], 103%; on 5-HT2A receptor [5], 94.6%. The “selectivity for 5-HT2A over 5-HT1B” value on 5-HT1B receptor is on record as “greater selectivity for 5-HT2A over 5-HT1B”. In addition, at 5-HT2A receptor [1], the “5-HT2A arrestin agonist class” value is recorded as “full agonists”. Besides, the “stability in HLM” value in “in vitro [2]” is “much lower stability (higher clearance)”. Moreover, the “half-life (t1/2)” value in the data set “in vitro [2]” is recorded as 1.607 min; in the data set “in vitro [3]” it was 0.6 min; in “in vitro [4]”, 1.655 min. In “in vitro [3]”, the “stability in MLM” value is listed as “much lower stability (higher clearance)”. For the same compound, in the data set “in vitro [4]”, the “stability in RLM” value is “much lower stability (higher clearance)”.
Regarding `CCN(CC)C(=O)[C@@H]1C=C2c3cccc4[nH]cc(c34)C[C@H]2N(Cc2ccccc2OC)C1` [Compound 10, (6aR,9R)—N,N-diethyl-7-(2-methoxybenzyl)-4,6,6a,7,8,9-hexahydroindolo[4,3-fg]quinoline-9-carboxamide], the Emax on 5-HT2B receptor was found to be 2%; at 5-HT1A receptor, 53%; at 5-HT1B receptor, 87.3%; on 5-HT2A receptor [1], 47.1%; on 5-HT2A receptor [5] it was 49.4%. For the same compound, in “in vitro [2]”, the “stability in HLM” value is recorded as “much lower stability (higher clearance)”. Moreover, the “Intrinsic clearance (Clint)” value in “in vitro [2]” amounted to 190.3 µL/min/mg; in “in vitro [3]”, 1396.8 µL/min/mg; in “in vitro [4]”, 407.4 µL/min/mg. Besides, the “half-life (t1/2)” value in the data set “in vitro [2]” was 7.3 min; in the data set “in vitro [3]” it was 1 min; in “in vitro [4]”, 3.4 min. Besides, the “stability in MLM” value in “in vitro [3]” is listed as “much lower stability (higher clearance)”. In the data set “in vitro [4]”, the “stability in RLM” value is recorded as “much lower stability (higher clearance)”.
In the case of `CCN(CC)C(=O)[C@@H]1C=C2c3cccc4[nH]cc(c34)C[C@H]2N(Cc2cccc(O)c2)C1` [Compound 62, (6aR,9R)—N,N-diethyl-7-(3-hydroxybenzyl)-4,6,6a,7,8,9-hexahydroindolo[4,3-fg]quinoline-9-carboxamide], the Emax on 5-HT2B receptor stood at 9.88%; at 5-HT1A receptor, 22.7%; at 5-HT1B receptor, 46.8%; at 5-HT2A receptor [1], 58.4%; on 5-HT2A receptor [5], 81.5%. The concentration for a half-maximal effect (EC50) at 5-HT2B receptor was > 100000 nM; at 5-HT1A receptor it was 12600 nM; at 5-HT1B receptor, > 10000 nM; on 5-HT2A receptor [1], 10.9 nM; at 5-HT2A receptor [5], 907 nM. Besides, the microsomal CLint in “in vitro [2]” was 134 µL/min/mg; in “in vitro [3]” it was 244 µL/min/mg; in the data set “in vitro [4]”, 214 µL/min/mg. Moreover, the values for the half-life in the data set “in vitro [2]”, in the data set “in vitro [3]” and in “in vitro [4]” were 10.3 min, 5.7 min and 6.5 min, respectively.
On to `CCN(CC)C(=O)[C@@H]1C=C2c3cccc4[nH]cc(c34)C[C@H]2N(Cc2ccc(F)cc2)C1` [Compound 49, (6aR,9R)—N,N-diethyl-7-(4-fluorobenzyl)-4,6,6a,7,8,9-hexahydroindolo[4,3-fg]quinoline-9-carboxamide], for which the Emax on 5-HT2B receptor is 3.58%; on 5-HT1A receptor, 14.3%; at 5-HT1B receptor, 37.9%; on 5-HT2A receptor [1], 39.4%; on 5-HT2A receptor [5] it was 92.5%. Also, the EC50 was > 10000 nM at 5-HT2B receptor; > 10000 nM on 5-HT1A receptor; > 10000 nM on 5-HT1B receptor; 7.68 nM at 5-HT2A receptor [1]; 1590 nM on 5-HT2A receptor [5]. For the same compound, in the data set “in vitro [2]”, the microsomal CLint turned out to be 87.8 µL/min/mg. The half-life in the data set “in vitro [2]” turned out to be 15.8 min.
As to `CCN(CC)C(=O)[C@@H]1C=C2c3cccc4[nH]cc(c34)C[C@H]2N(CCCF)C1` [Compound 2, (6aR,9R)—N,N-diethyl-7-(3-fluoropropyl)-4,6,6a,7,8,9-hexahydroindolo[4,3-fg]quinoline-9-carboxamide], the Emax was 101% at 5-HT2B receptor; 92.4% on 5-HT1A receptor; 90% on 5-HT1B receptor; 115% at 5-HT2A receptor [1]; 97.8% at 5-HT2A receptor [5]. The “selectivity for 5-HT2A over 5-HT1B” value on 5-HT1B receptor was “greater selectivity for 5-HT2A over 5-HT1B”. For the same compound, the “5-HT2A arrestin agonist class” value on 5-HT2A receptor [1] is reported as “full agonists”. For the same compound, in the data set “in vitro [2]”, the “stability in HLM” value is “much lower stability (higher clearance)”. Further, the results for the “half-life (t1/2)” value in the data set “in vitro [2]”, in the data set “in vitro [3]” and in “in vitro [4]” were 19.061 min, 2.666 min and 11.972 min, respectively. The “stability in MLM” value in “in vitro [3]” was “much lower stability (higher clearance)”. In “in vitro [4]”, the “stability in RLM” value was “much lower stability (higher clearance)”.
